Data taken from US4820804A, “Analogs of [1,7-di-alanine, des-19-leucine]calcitonin” (Rorer Pharmaceutical Corporation, priority 1987, dated 1989).
Residues, ends and D or L forms follow the SMILES beside them. *: point of attachment. Propionyl = CCC(=O)*

Experiments:
[1] = test system: serum calcium concentration; conditions: rat, in vivo, sc
Procedure: SCT and synthetic salmon calcitonin standard. Rats were divided into four groups of seven animals, and each group was assigned at random to a dose of standard or test solution. Low and high doses were chosen from the linear portion of the dose-response curve. For the salmon calcitonin standard, the values were 0.7 and 2.1 mcg. peptide/100 g. BW. Peptides were given by subcutaneous injection (0.2 ml/100 g. BW) and blood was withdrawn 1 hour later for serum calcium determination. Sera are processed and analyzed within two hours of collection. Results were analyzed within two hours of collection.

[2] = Independent determination of the potency of the standard salmon calcitonin; conditions: standard used in the rat assay, independently determined
Procedure: The biological potency of [N-alpha-Propionyl-1,7-Di-Ala,Des-19-Leu] salmon calcitonin was determined by comparing the reduction of serum calcium concentration which followed administration by graded doses of [N-alpha-Propionyl-1,7-Di-Ala,Des-19-Leu] SCT and synthetic salmon calcitonin standard. Rats were divided into four groups of seven animals, and each group was assigned at random to a dose of standard or test solution. Low and high doses were chosen from the linear portion of the dose-response curve. For the salmon calcitonin standard, the values were 0.7 and 2.1 mcg. peptide/100 g. BW. Peptides were given by subcutaneous injection (0.2 ml/100 g. BW) and blood was withdrawn 1 hour later for serum calcium determination. Sera are processed and analyzed within two hours of collection. […]. Results were analyzed by a 2×2 parallel line assay [Gaddum, J. H., J. Pharm. Pharmacol., 6, 345 (1953)]. The standard salmon calcitonin used was independently determined to contain greater than 4,000 IU/mg.

Compound | Potency [1] [Iu/mg] | potency content of standard salmon calcitonin [2]
CCC(=O)N[C@@H](CO)C(=O)N[C@@H](CC(N)=O)C(=O)N[C@@H](CC(C)C)C(=O)N[C@@H](CO)C(=O)N[C@H](C(=O)N[C@@H](C)C(=O)N[C@H](C(=O)N[C@@H](CC(C)C)C(=O)NCC(=O)N[C@@H](CCCCN)C(=O)N[C@@H](CC(C)C)C(=O)N[C@@H](CO)C(=O)N[C@@H](CCC(N)=O)C(=O)N[C@@H](CCC(=O)O)C(=O)N[C@@H](CC(C)C)C(=O)N[C@@H](Cc1c[nH]cn1)C(=O)N[C@@H](CCCCN)C(=O)N[C@@H](CCC(N)=O)C(=O)N[C@H](C(=O)N[C@@H](Cc1ccc(O)cc1)C(=O)N1CCC[C@H]1C(=O)N[C@@H](CCCNC(=N)N)C(=O)N[C@H](C(=O)N[C@@H](CC(N)=O)C(=O)N[C@H](C(=O)NCC(=O)N[C@@H](CO)C(=O)NCC(=O)N[C@H](C(=O)N1CCC[C@H]1C(N)=O)[C@@H](C)O)[C@@H](C)O)[C@@H](C)O)[C@@H](C)O)C(C)C)[C@@H](C)O [Des-1-Amino] (Propionyl-SNLSTAVLGKLSQELHKQTYPRTNTGSGTP-NH2) | 7300 | 
CCC(=O)N[C@@H](C)C(=O)N[C@@H](CO)C(=O)N[C@@H](CC(N)=O)C(=O)N[C@@H](CC(C)C)C(=O)N[C@@H](CO)C(=O)N[C@H](C(=O)N[C@@H](C)C(=O)N[C@H](C(=O)N[C@@H](CC(C)C)C(=O)NCC(=O)N[C@@H](CCCCN)C(=O)N[C@@H](CC(C)C)C(=O)N[C@@H](CO)C(=O)N[C@@H](CCC(N)=O)C(=O)N[C@@H](CCC(=O)O)C(=O)N[C@@H](CC(C)C)C(=O)N[C@@H](Cc1c[nH]cn1)C(=O)N[C@@H](CCCCN)C(=O)N[C@@H](CCC(N)=O)C(=O)N[C@H](C(=O)N[C@@H](Cc1ccc(O)cc1)C(=O)N1CCC[C@H]1C(=O)N[C@@H](CCCNC(=N)N)C(=O)N[C@H](C(=O)N[C@@H](CC(N)=O)C(=O)N[C@H](C(=O)NCC(=O)N[C@@H](CO)C(=O)NCC(=O)N[C@H](C(=O)N1CCC[C@H]1C(N)=O)[C@@H](C)O)[C@@H](C)O)[C@@H](C)O)[C@@H](C)O)C(C)C)[C@@H](C)O [N--Alpha-Propionyl, [N alpha-Propionyl, 1,7-Di-Alanine, Des-19-Leucine] salmon calcitonin] (Propionyl-ASNLSTAVLGKLSQELHKQTYPRTNTGSGTP-NH2) | 7600 | 
CC(C)C[C@H](NC(=O)[C@H](CCCCN)NC(=O)CNC(=O)[C@H](CC(C)C)NC(=O)[C@@H](NC(=O)[C@H](C)NC(=O)[C@@H](NC(=O)[C@H](CO)NC(=O)[C@H](CC(C)C)NC(=O)[C@H](CC(N)=O)NC(=O)[C@H](CO)NC(=O)[C@H](C)N)[C@@H](C)O)C(C)C)C(=O)N[C@@H](CO)C(=O)N[C@@H](CCC(N)=O)C(=O)N[C@@H](CCC(=O)O)C(=O)N[C@@H](CC(C)C)C(=O)N[C@@H](Cc1c[nH]cn1)C(=O)N[C@@H](CCCCN)C(=O)N[C@@H](CCC(N)=O)C(=O)N[C@H](C(=O)N[C@@H](Cc1ccc(O)cc1)C(=O)N1CCC[C@H]1C(=O)N[C@@H](CCCNC(=N)N)C(=O)N[C@H](C(=O)N[C@@H](CC(N)=O)C(=O)N[C@H](C(=O)NCC(=O)N[C@@H](CO)C(=O)NCC(=O)N[C@H](C(=O)N1CCC[C@H]1C(N)=O)[C@@H](C)O)[C@@H](C)O)[C@@H](C)O)[C@@H](C)O [Parent, [1,7 Di-Alanine, Des-19-Leucine]Salmon Calcitonin] (H-ASNLSTAVLGKLSQELHKQTYPRTNTGSGTP-NH2) | 7400 | 
Salmon calcitonin [standard salmon calcitonin] |  | greater than 4,000 IU/mg
